Laboratory results taken from patent US6521814B1, “Use of ligands for treatment of diseases responsive to retinoids” (Institut National de la Santa et de la Recherche Medicale, priority 1997, dated 2003).

Experiments:
RARα−/− F9 cells [1] = assay: Morphological differentiation of F9 cell aggregates into visceral endoderm (VE)-like cells (morphology, RT-PCR of markers); assay type: cell-based, murine; parameters: key to proportion of outer layer of cells displaying VE morphology: +++: more than 80%; ++: 50-80%; +: 10-50%; ±: not more than 10%; (−): no visible effect; details: 500 nM, 10 d
Text: (§1) Similarly, after 10 d of treatment, >80% of the outer layer of RARα^−/− and RXRα^−/−/RARα^−/− cell aggregates differentiated into VE-like cells, which were indistinguishable from those of WT and RXRα^−/− cells (FIG. 23A, compare f with panels b and d; and Table 9). […] To exclude the possibility that this very poor differentiation of the RXRα^−/−/RARγ^−/− cells could be due to some clonal variation, rather than the presence of the RXRα-null mutation in the RARγ-null background, we expressed the RXRα cDNA in RXRα^−/−/RARγ^−/− cells.
(§2) F9 cells were cultured and induced to differentiate into primitive, parietal and visceral endoderm-like cells as previously described (Boylan, J., et al., Proc. Natl. Acad. Sci. USA 90:9601-9605 (1993); Clifford, J., et al., EMBO J. 15:4142-4155 (1996)).
(§3) RNA preparation, RT-PCR, and Southern blotting were performed as previously described (Bouillet, P., et al., Dev. Biol. 170:420-433 (1995); Roy, B., et al., Mol. Cell. Biol. 15:6481-6487 (1995)). The PCR primers and end-labeled oligonucleotide probes for collagen IVα1, laminin B1, α-fetoprotein (AFP), and 36B4, were described previously (Clifford, J., et al ., EMBO J. 15:4142-4155 (1996)). Transcript levels were quantified using a BAS 2000 bioimaging analyzer (Fuji Ltd., Tokyo, Japan), and were normalized to the corresponding 36B4 signals.

WT F9 cells [2] = assay: as above; assay type: cell-based, murine; parameters: key to proportion of outer layer of cells displaying VE morphology: +++: more than 80%; ++: 50-80%; +: 10-50%; ±: not more than 10%; (−): no visible effect; details: WT; 500 nM; 10 d
Text: as §1, §2, §3

RARγ−/− F9 cells [3] = assay: as above; assay type: cell-based, murine; details: RARγ−/−; 500 nM; 10 d
Experimental: as §2, §3

RARα−/− F9 cells [4] = assay: Proliferation of F9 cells in monolayer culture (cell counting, [3H]thymidine incorporation, cell cycle FACS); assay type: cell-based, murine; details: 500 nM, 6 d
Experimental: (§4) Cells were plated in triplicate 3-cm culture wells (5×10^2 cells per well), and cell counting experiments were performed as previously described (Clifford, J., et al., EMBO J. 15:4142-4155 (1996)). [^3H]Thymidine incorporation assays were performed essentially as described (Clifford, J., et al., EMBO J. 15:4142-4155 (1996)), with the following modifications. […] The cell cycle profile of WT and mutant cells was determined as previously described (Clifford, J., et al. EMBO J. 15:4142-4155 (1996)).

RARγ−/− F9 cells [5] = assay: as above; assay type: cell-based, murine; details: 6 d
Experimental: as §4

WT F9 cells [6] = assay: as above; assay type: cell-based, murine; details: 6 d
Experimental: as §4

RXRα−/− F9 cells [7] = assay: as above; assay type: cell-based, murine; details: 6 d
RXRα−/−/RARα−/− F9 cells [8] = assay: as above; assay type: cell-based, murine; details: 500 nM, 6 d
RXRα−/−/RARγ−/− F9 cells = assay: as above; assay type: cell-based, murine; details: 500 nM, 6 d
RARγ−/− F9 cells [9] = assay: Apoptosis of F9 cells (Hoechst 33258 staining, FACS); assay type: cell-based, murine; details: 6 d
Experimental: (§5) Apoptosis was analyzed by both Hoechst staining of nuclei and FACS® analysis, as previously described (Clifford, J., et al., EMBO J. 15:4142-4155 (1996)).

WT F9 cells [10] = assay: as above; assay type: cell-based, murine; details: 6 d
Experimental: as §5

RARα−/− F9 cells [11] = assay: as above; assay type: cell-based, murine; parameters: key: (−): no visible effect; details: 6 d
Experimental: as §5

RXRα−/− F9 cells [12] = assay: as above; assay type: cell-based, murine; details: 100 nM, 6 d
RXRα−/−/RARα−/− F9 cells [13] = assay: as above; assay type: cell-based, murine; details: 100 nM, 6 d
mouse RXRγ (mouse) = mouse RXRγ (mouse) (UniProt P28705); assay: cell-based or functional assay
mouse RXRγ (mouse), sequence (P28705 whole entry): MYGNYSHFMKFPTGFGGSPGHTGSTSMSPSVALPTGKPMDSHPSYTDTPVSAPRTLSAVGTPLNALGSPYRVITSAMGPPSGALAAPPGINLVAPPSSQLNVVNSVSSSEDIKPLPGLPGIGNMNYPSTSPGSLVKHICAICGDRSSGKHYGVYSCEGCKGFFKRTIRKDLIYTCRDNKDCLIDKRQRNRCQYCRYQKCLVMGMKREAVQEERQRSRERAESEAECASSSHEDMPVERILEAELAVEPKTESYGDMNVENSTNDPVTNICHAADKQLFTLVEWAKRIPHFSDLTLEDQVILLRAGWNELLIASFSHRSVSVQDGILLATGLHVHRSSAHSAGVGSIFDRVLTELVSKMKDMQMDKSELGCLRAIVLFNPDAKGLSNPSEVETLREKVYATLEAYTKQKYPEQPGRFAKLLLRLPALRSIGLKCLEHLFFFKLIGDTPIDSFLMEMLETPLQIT

CC1(C)CC=C(c2ccccc2)c2cc(/C=C/c3ccc(C(=O)O)cc3)ccc21 [RARβ agonist]
proportion of outer layer of cells displaying VE morphology (RARα−/− F9 cells [1]): (−) | proportion of outer layer of cells displaying VE morphology (WT F9 cells [2]): (−) | proportion of outer layer of cells displaying VE morphology (RARγ−/− F9 cells [3]): ± (not more than 10%) | number of cells in percent relative to cells grown in 0.1% ethanol (RARα−/− F9 cells [4]): 100% | number of cells in percent relative to cells grown in 0.1% ethanol (RARγ−/− F9 cells [5]; 50 nM): 100% | number of cells in percent relative to cells grown in 0.1% ethanol (RARγ−/− F9 cells [5]; 500 nM): 100% | number of cells in percent relative to cells grown in 0.1% ethanol (WT F9 cells [6]; 50 nM): 100% | number of cells in percent relative to cells grown in 0.1% ethanol (WT F9 cells [6]; 500 nM): 100% | number of cells in percent relative to cells grown in 0.1% ethanol (RXRα−/− F9 cells [7]; 50 nM): 100% | number of cells in percent relative to cells grown in 0.1% ethanol (RXRα−/− F9 cells [7]; 500 nM): 100% | number of cells in percent relative to cells grown in 0.1% ethanol (RXRα−/−/RARα−/− F9 cells [8]): 100% | number of cells in percent relative to cells grown in 0.1% ethanol (RXRα−/−/RARγ−/− F9 cells): 120% | proportion of apoptotic nuclei and subcellular fragments (Hoechst 33258) (RARγ−/− F9 cells [9]; 500 nM): (−) | proportion of apoptotic nuclei and subcellular fragments (Hoechst 33258) (WT F9 cells [10]; 500 nM): (−) | proportion of apoptotic nuclei and subcellular fragments (Hoechst 33258) (RARα−/− F9 cells [11]; 500 nM): (−)

CC1(C)CCC(C)(C)c2cc(NC(=O)c3ccc(C(=O)O)cc3)ccc21 [panRAR agonist]
proportion of apoptotic nuclei and subcellular fragments (Hoechst 33258) (RARγ−/− F9 cells [9]; 100 nM): ± (<1%) | proportion of apoptotic nuclei and subcellular fragments (Hoechst 33258) (WT F9 cells [10]; 100 nM): + (>1-10%) | proportion of apoptotic nuclei and subcellular fragments (Hoechst 33258) (RXRα−/− F9 cells [12]): ±* (asterisks less than that in combination with 1 μM panRXR agonist) | proportion of apoptotic nuclei and subcellular fragments (Hoechst 33258) (RARα−/− F9 cells [11]; 100 nM): + (>1-10%) | proportion of apoptotic nuclei and subcellular fragments (Hoechst 33258) (RXRα−/−/RARα−/− F9 cells [13]): ±* (asterisks less than that in combination with 1 μM panRXR agonist)

mouse RARα (from UniProt P11416 1-462) (receptor)
CAT activity of the C1 reporter (D2R promoter) in COS-1 cells cotransfected with RARα and RXRγ, in the presence of t-RA and 9-cis-RA (mouse RXRγ (mouse)): 45 fold | CAT activity of the C2 reporter in COS-1 cells coexpressing RARα/RXRγ, in the presence of t-RA and 9-cis-RA (mouse RXRγ (mouse)): 66 fold | CAT activity of the C3 reporter (D2R RARE upstream of the TK promoter) in COS-1 cells cotransfected with RARα/RXRγ, in the presence of t-RA and 9-cis-RA (mouse RXRγ (mouse)): 11 fold
